The numbers were not newly measured in patent US20050201949A1, “Pharmaceutical formulations” (priority 2003, published 2005), which cites them from elsewhere.

Structures can show the parent of a compound that is named as a salt.

For the data set the following is noted: solid tablets with a lactose excipient; Maillard reaction postulated.

As to `CNCCC(Oc1ccc(C(F)(F)F)cc1)c1ccccc1` (stereo not shown) [fluoxetine hydrochloride], the “Degradation in the presence of lactose excipient” value is “undergoes degradation”.
